Blank lines part the entries; values can stand above or below the compound they belong to. The source made the active and inactive calls.
Legend:
[1] = HEK-293T viability loss, compound-treated – cell-based, uHTS hits, cytotoxicity control for B/T-cell NF-kB inhibitor project, dose response (AID 489019); type: functional;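 also: IC50 reflects cytotoxicity as loss of cell viability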
[2] = test system: Jurkat; assay: blockers of NF-kB activation in T cells – Jurkat, luciferase reporter, luminescence, B- and T-cell, dose response (AID 489004); type: functional, cell-based; conditions: Homo sapiens;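 also: NF-kB luciferase reporter Jurkat cells stimulated with PMA plus ionomycin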
[3] = test system: Jurkat; assay: SAR Analysis of small molecule inhibitors of T-cell specific antigen receptor-induced NF-kB activation in a Jurkat cell line using a luminescence assay - Set 2. [Related pubchem assays (depositor defined):AID435003, AID435012, AID465]; type: functional, cell-based; conditions: Homo sapiens
[4] = test system: HEK293; assay: SAR Analysis of small molecule inhibitors of T-cell specific antigen receptor-induced NF-kB activation in a HEK-293T cell line using a luminescence assay - Set 2. [Related pubchem assays (depositor defined):AID435003, AID435012, AID489026]; type: functional, cell-based; conditions: Homo sapiens
[5] = test system: HEK293; assay: HEK293T cell viability loss, resazurin readout – resazurin fluorescence, cytotoxicity control for NF-kB activator project, SAR follow-up (AID 493251); type: functional, cell-based; conditions: Homo sapiens
[6] = viability loss of HMLE_sh_eGFP cells – cell-based, luminescence, counter-screen for HMLE_sh_ECad selective toxicity project, dose response (AID 463074); type: functional, Homo sapiens;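 also: HMLE human mammary epithelial cells expressing control shRNA against eGFP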
[7] = Luminescence Cell-Based Dose Retest to Confirm Inhibitors of Cancer Stem Cells. [Related pubchem assays (depositor defined):AID2717, AID2721]; type: functional; conditions: Homo sapiens
[8] = target: Beta-galactosidase (Escherichia coli, UniProt Q8VNN2); assay: PubChem AID 485352; type: functional
Beta-galactosidase, sequence (Q8VNN2 whole entry): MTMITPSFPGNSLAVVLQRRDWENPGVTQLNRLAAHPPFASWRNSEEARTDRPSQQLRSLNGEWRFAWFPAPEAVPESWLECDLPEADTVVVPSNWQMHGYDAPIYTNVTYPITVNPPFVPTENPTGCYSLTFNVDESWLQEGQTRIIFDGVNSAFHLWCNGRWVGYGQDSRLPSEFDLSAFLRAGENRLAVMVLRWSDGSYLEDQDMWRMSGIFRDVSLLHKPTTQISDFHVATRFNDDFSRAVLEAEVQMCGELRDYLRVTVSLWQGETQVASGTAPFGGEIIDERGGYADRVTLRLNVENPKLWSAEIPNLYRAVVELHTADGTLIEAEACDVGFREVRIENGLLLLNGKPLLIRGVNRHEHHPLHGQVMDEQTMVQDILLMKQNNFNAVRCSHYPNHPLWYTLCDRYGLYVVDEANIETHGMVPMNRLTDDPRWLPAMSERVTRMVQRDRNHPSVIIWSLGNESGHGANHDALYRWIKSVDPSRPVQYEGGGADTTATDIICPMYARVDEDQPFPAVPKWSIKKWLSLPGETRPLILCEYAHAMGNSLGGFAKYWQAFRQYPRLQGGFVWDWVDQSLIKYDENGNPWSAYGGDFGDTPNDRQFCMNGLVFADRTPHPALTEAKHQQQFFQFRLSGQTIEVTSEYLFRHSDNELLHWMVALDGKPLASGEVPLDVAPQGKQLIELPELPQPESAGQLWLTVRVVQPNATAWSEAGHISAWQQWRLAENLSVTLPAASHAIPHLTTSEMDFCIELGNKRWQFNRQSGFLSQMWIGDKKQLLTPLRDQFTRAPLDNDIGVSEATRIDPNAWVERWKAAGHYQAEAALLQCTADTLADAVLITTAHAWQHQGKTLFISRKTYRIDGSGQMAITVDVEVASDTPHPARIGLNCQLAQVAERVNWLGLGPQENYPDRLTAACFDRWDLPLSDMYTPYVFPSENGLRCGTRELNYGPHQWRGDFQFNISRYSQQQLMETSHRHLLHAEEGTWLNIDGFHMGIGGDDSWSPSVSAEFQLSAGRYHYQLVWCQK

[9] = target: T1, Corticotropin-releasing factor receptor 2/Corticotropin-releasing factor-binding protein (Homo sapiens, UniProt P24387+Q13324); assay: Dose Response confirmation of uHTS hits for small molecule antagonists of the CRF-binding protein and CRF-R2 receptor complex.; type: functional; conditions: read-out: IC50_Mean
T1 sequence (Q13324 whole entry): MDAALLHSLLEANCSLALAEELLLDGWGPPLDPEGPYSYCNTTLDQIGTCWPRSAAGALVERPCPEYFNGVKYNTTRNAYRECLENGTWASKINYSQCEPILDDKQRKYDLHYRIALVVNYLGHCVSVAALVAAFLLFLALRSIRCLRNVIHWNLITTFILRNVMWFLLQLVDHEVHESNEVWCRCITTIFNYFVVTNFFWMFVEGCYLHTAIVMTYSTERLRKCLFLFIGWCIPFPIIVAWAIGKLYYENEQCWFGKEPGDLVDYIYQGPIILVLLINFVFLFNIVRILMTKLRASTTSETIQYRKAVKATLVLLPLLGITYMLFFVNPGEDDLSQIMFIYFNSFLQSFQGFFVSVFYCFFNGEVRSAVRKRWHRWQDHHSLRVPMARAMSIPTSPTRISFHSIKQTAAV
T1 sequence (P24387 whole entry): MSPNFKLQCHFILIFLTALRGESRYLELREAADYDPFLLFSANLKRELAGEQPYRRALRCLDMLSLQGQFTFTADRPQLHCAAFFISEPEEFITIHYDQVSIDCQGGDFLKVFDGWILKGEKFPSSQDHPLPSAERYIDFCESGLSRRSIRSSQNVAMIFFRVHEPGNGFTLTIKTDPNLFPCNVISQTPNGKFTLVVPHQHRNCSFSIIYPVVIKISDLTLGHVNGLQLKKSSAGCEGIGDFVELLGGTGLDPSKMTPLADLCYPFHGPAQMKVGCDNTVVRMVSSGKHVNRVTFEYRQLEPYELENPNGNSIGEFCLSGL

[10] = target: T1, Corticotropin-releasing factor receptor 2/Corticotropin-releasing factor-binding protein; assay: activators of CRF receptor 2 with binding protein – uHTS hits, confirmation (AID 602473); type: functional; conditions: read-out: EC50_Mean
[11] = target: Type-1 angiotensin II receptor (Homo sapiens, UniProt P30556); assay: antagonism of angiotensin II type 1 receptor – cell-based, uHTS hits, selectivity assay for APJ receptor antagonist project, dose response (AID 463214); type: functional;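 also: antagonist potency against angiotensin II stimulated AT1 response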
Type-1 angiotensin II receptor, sequence (P30556 whole entry): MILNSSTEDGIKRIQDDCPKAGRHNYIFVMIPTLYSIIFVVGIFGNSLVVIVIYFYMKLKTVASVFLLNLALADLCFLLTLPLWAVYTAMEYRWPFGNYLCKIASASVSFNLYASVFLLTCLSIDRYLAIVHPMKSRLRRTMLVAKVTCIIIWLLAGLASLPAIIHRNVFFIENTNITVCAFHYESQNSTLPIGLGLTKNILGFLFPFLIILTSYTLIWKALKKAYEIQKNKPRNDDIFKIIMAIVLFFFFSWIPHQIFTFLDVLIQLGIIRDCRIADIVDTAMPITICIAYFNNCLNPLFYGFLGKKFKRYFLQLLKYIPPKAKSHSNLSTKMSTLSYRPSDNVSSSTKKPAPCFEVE

[12] = test system: HEK293; assay: cells; type: functional, cell-based; conditions: Homo sapiens
[13] = target: T2, Nuclear receptor subfamily 0 group B member 1 (Homo sapiens, UniProt P51843); assay: Luminescence-based cell-based high throughput dose response assay for inhibitors of the orphan nuclear receptor subfamily 0, group B, member 1 (DAX1; NR0B1). [Related pubchem assays (depositor defined):AID504766, AID504790]; type: functional
T2 sequence (P51843 whole entry): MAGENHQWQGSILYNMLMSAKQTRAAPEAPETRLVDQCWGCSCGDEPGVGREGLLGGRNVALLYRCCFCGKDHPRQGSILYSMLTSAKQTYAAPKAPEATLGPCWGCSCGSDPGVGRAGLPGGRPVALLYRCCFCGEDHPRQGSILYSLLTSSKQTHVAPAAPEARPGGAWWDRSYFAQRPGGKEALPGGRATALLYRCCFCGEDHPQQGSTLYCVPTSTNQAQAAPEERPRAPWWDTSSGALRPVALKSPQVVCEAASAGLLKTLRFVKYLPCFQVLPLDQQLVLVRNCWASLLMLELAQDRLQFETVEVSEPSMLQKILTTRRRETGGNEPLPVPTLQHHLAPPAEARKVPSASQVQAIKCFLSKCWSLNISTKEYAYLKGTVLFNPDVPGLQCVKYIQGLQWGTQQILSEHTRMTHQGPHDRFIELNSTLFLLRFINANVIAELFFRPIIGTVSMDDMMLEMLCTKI

[14] = target: T3, Aspartyl aminopeptidase (Plasmodium falciparum 3D7, UniProt Q8I2J3); assay: Counterscreen for inhibitors of M1 and M17 aminopeptidases: QFRET-based biochemical high throughput dose response assay for inhibitors of the Plasmodium falciparum M18 Aspartyl Aminopeptidase (PFM18AAP). [Related PubChem assays: 1619 (Screening assay (M17LAP inhibitors).), 1445 (Screening assay (M1AAP inhibitors).)]
T3 sequence (Q8I2J3 whole entry): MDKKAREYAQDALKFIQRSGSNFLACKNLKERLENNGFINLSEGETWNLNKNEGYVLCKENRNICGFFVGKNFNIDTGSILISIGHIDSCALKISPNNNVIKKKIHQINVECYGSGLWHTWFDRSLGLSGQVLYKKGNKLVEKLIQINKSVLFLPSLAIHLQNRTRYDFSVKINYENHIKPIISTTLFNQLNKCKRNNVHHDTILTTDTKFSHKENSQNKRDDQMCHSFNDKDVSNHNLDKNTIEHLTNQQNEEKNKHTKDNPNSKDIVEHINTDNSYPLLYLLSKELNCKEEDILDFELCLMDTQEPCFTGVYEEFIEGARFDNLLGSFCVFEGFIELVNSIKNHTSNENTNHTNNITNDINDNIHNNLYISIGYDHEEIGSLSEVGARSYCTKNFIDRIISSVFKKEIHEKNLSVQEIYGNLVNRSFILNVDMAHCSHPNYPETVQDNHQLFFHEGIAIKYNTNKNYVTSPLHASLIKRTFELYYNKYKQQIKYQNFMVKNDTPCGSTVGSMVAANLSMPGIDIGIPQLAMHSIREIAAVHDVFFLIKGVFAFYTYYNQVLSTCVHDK

[15] = target: T4, Microphthalmia-associated transcription factor (Homo sapiens, UniProt O75030); assay: reducers of TRPM1 reporter luminescence, concentration series – cell-based, SK-MEL-5, cherry-picked, set 3, MITF inhibitor project, dose response (AID 493073); type: functional;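 also: SK-MEL-5 melanoma cells with luciferase driven by the MITF target TRPM1 promoter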
T4 sequence (O75030 whole entry): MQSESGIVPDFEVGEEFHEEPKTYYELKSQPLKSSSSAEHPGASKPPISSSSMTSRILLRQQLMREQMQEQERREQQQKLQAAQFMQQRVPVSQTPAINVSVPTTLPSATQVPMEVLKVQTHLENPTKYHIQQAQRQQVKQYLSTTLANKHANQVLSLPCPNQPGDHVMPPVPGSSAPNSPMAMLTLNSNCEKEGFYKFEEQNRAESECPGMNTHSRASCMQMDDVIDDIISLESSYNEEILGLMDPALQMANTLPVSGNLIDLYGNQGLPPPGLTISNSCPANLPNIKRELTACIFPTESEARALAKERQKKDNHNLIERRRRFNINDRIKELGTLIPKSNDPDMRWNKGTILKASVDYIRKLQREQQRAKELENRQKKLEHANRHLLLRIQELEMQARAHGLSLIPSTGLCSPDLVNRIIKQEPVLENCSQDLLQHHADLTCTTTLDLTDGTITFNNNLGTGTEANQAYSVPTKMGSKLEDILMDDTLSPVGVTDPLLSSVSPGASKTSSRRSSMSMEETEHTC

[16] = target: T5, Leucine aminopeptidase (Plasmodium falciparum 3D7, UniProt Q8IL11); assay: P. falciparum M17LAP inhibitors, primary screen, biochemical, fluorogenic H-Leu-NHMec substrate, 1536-well (AID 1619); type: functional
T5 sequence (Q8IL11 whole entry): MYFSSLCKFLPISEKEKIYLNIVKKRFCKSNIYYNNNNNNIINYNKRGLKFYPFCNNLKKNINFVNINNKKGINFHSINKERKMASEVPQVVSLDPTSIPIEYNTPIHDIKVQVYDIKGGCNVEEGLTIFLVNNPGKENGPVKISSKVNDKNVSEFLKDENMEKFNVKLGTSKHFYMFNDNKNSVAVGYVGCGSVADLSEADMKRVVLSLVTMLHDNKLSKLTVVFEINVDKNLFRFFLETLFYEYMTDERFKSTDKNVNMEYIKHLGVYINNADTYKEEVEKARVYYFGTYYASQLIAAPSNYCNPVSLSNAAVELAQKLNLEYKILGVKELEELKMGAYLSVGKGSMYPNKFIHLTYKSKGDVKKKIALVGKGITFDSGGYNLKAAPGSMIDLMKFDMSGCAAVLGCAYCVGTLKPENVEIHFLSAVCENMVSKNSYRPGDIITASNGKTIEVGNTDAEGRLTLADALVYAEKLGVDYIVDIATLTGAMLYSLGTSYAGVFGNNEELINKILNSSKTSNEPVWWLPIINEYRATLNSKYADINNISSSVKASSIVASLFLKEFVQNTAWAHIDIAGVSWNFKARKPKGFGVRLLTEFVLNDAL

[17] = A549 cell cytotoxicity, dose response, cytotoxicity control, plate reader, cherry-pick, antagonist series (AID 743412); type: functional, cell-based
[18] = off-target signal loss in HeLa-CEM21 co-culture – HeLa F-luc CTL cells, cherry-picked, counter-screen for HIV-1 Env fusion inhibitor project, dose response (AID 652040); type: functional, cell-based;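 also: potency for signal decrease marking cytotoxic or nonspecific inhibition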
[19] = target: Procathepsin L (Homo sapiens, UniProt P07711); assay: CTSL1 protease inhibition – biochemical, QFRET, 1536-well, counter-screen for M1/M17 aminopeptidase inhibitor project, dose response (AID 2214)
Procathepsin L, sequence (P07711 whole entry, the tested form may be a part): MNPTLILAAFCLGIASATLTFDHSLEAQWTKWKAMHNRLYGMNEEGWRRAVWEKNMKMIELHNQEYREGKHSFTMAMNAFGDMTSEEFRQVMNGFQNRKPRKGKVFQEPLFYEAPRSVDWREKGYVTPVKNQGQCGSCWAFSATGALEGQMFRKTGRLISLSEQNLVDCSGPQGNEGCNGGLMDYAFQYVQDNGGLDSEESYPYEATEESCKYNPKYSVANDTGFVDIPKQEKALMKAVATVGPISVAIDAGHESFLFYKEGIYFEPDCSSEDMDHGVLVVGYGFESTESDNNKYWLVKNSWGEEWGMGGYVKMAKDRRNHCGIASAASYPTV

[20] = HIV-1 AD8 envelope cell-cell fusion blockers – cherry-pick, dose response (AID 652062); type: functional, cell-based;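 also: luciferase signal from cell-cell fusion driven by HIV-1 clade B AD8 Env; potency is for inhibitors of fusion seen as a drop in luminescence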
[21] = blockade of melanocortin 4 receptor signaling – cell-based, plate reader, cherry pick, counter-screen for LGR2 antagonist project, dose response (AID 743444); type: functional;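 also: transfected HEK 293 cells stimulated with alpha-MSH peptide; potency of inhibitors of the alpha-MSH evoked signal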
[22] = blockers of HIV-1 envelope-mediated cell-cell fusion – cherry-pick, dose response (AID 652057); type: functional, cell-based
[23] = blockers of bursicon-stimulated LGR2 cAMP reporter – cell-based, HEK293, CRE-luciferase reporter, cherry pick, set 2, dose response (AID 743343); type: functional;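 also: transfected cells were stimulated with diluted bursicon conditioned medium after compound addition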

Compound: CC(C)(O)c1[nH]c2ccc(C#N)cc2c1C(C)(C)O
IC50 [1]: > 80 µM (inactive) | IC50 [2]: > 80 µM (inactive)

Compound: COc1ccc(C(NC(=O)CC(C)C)c2ccc3cccnc3c2O)cc1OC (centres undefined)
IC50 [3]: 5.48 µM (active) | IC50 [4]: 6.6 µM (active) | IC50 [5]: 20.1 µM (inactive)

Compound: CCCOc1ccc(C(=O)N2CCN(c3ccc(N)cc3Cl)CC2)cc1
AC50 [6]: 47.8 µM (active) | AC50 [7]: 10.1 µM (active)

EC50 [8]: > 40 µM (inactive) | IC50 [9]: > 47.1 µM (inactive) | EC50 [10]: > 53 µM (inactive) | IC50 [11]: 17.7 µM (active)
Compound: ON1C(c2ccc(Cl)cc2Cl)N(O)[C@H]2CCCC[C@H]21 (some centres undefined)

EC50 [8]: > 40 µM (inactive) | IC50 [11]: 24.4 µM (not active)
Compound: CC(C(=O)OCC(=O)c1cccc([N+](=O)[O-])c1)N1C(=O)C2C3CCC(C3)C2C1=O (centres undefined)

Compound: Cc1nn(-c2ccccc2)c(Cl)c1C(=O)N1CCN(C)CC1
IC50 [12]: > 67.5 µM (inactive) | IC50 [13]: > 67.5 µM (inactive)

Compound: O=C(Nc1ccc(Cl)cc1)Nc1cccc(C(=O)O)c1
IC50 [14]: > 73.5 µM (not active) | AC50 [15]: 3.79 µM (active) | IC50 [16]: < 1 µM (active) | IC50 [1]: > 80 µM (inactive) | AC50 [17]: > 52 µM (inactive) | AC50 [18]: 2.95 µM (active) | IC50 [19]: > 59.6 µM (not active) | IC50 [2]: 3.35 µM (active) | AC50 [20]: 2.51 µM (active) | AC50 [21]: 1.88 µM (active) | AC50 [22]: 2.22 µM (active) | AC50 [23]: 2.93 µM (active)

Compound: CCC(=O)NC(c1ccc(N(C)C)cc1)c1ccc2cccnc2c1O (centres undefined)
IC50 [3]: 2.67 µM (active) | IC50 [4]: 7 µM (active) | IC50 [5]: 18.4 µM (active)

Compound: COc1ccc(N=C(S)N(C)N=C(S)Nc2ccc(OC)cc2)cc1
AC50 [6]: 22 µM (active) | AC50 [7]: 16.3 µM (active)

Compound: Cc1ccc(NC(=O)c2ccccc2F)c(NC(=O)c2ccccc2F)c1
IC50 [12]: > 67.5 µM (inactive) | IC50 [13]: > 67.5 µM (inactive)

— ChEMBL document CHEMBL1201862, “PubChem BioAssay data set” (2004)
